Experimental data: patent publication US10064954B2, “Polymer-cyclodextrin-lipid conjugates” (priority 2015, dated 2018)
Structures can show the parent of a compound that is named as a salt.

What was measured:
[1] = type: physicochemical
Protocol: 1% (w/v) of propofol was prepared in a saline based solution with different PEG-carbohydrate conjugates. Table 6 listed the minimum concentration of the conjugates required to solublize propofol as a solubility test reference.

[2] = Solubility of marketed Drug Products: cyclodextrin to drug ratio
[3] = CD = hydroxypropyl-β-cyclodextrin
[4] = CD = sulfobutyl ether β-cyclodextrin

Compound: 2-hydroxypropyl-β-cyclodextrin
- Concentration (% w/v) [1]: 30 % w/v

Compound: CN1C(=O)CN=C(c2ccccc2)c2cc(Cl)ccc21 [Diazepam]
- CD/D (mol/mol) [2, 3]: 18.4 mol/mol

Compound: O=C(CCCN1CCC(O)(c2ccc(Cl)cc2)CC1)c1ccc(F)cc1 [Haloperidol]
- CD/D (mol/mol) [2, 3]: 302.9 mol/mol

Compound: CCC(C)n1ncn(-c2ccc(N3CCN(c4ccc(OCC5COC(Cn6cncn6)(c6ccc(Cl)cc6Cl)O5)cc4)CC3)cc2)c1=O (stereo not drawn) [Itraconazole]
- CD/D (mol/mol) [2, 3]: 20.2 mol/mol

Compound: CN(Cc1cnc2nc(N)nc(N)c2n1)c1ccc(C(=O)N[C@@H](CCC(=O)O)C(=O)O)cc1 [Methotrexate]
- CD/D (mol/mol) [2, 3]: 18.3 mol/mol

Compound: CC[C@@H]([C@H](C)O)n1ncn(-c2ccc(N3CCN(c4ccc(OC[C@@H]5CO[C@@](Cn6cncn6)(c6ccc(F)cc6F)C5)cc4)CC3)cc2)c1=O [Posaconazole]
- CD/D (mol/mol) [2, 4]: 6.9 mol/mol

Compound: CC(C)NCC(O)COc1cccc2ccccc12 (stereo not drawn) [Propranolol]
- CD/D (mol/mol) [2, 3]: 10.4 mol/mol

Compound: CNC(=C[N+](=O)[O-])NCCSCc1ccc(CN(C)C)o1 [Ranitidine HCl]
- CD/D (mol/mol) [2, 3]: 14.5 mol/mol

Compound: CCCCCCCCCCNCCN[C@@]1(C)C[C@H](O[C@H]2[C@H](Oc3c4cc5cc3Oc3ccc(cc3Cl)[C@@H](O)[C@@H](NC(=O)[C@@H](CC(C)C)NC)C(=O)N[C@@H](CC(N)=O)C(=O)N[C@H]5C(=O)N[C@H]3C(=O)N[C@H](C(=O)N[C@H](C(=O)O)c5cc(O)c(CNCP(=O)(O)O)c(O)c5-c5cc3ccc5O)[C@H](O)c3ccc(c(Cl)c3)O4)O[C@H](CO)[C@@H](O)[C@@H]2O)O[C@@H](C)[C@H]1O [Telavancin HCl]
- CD/D (mol/mol) [2, 3]: 12.6 mol/mol

Compound: C[C@@H](c1ncncc1F)[C@](O)(Cn1cncn1)c1ccc(F)cc1F [Voriconazole]
- CD/D (mol/mol) [2, 4]: 2.5 mol/mol

Compound: cholesterypropanediaminelactobionate-mPEG12
- Concentration (% w/v) [1]: 3.5 % w/v

Compound: oleoylpropanediaminelactobionate-mPEG12
- Concentration (% w/v) [1]: 3.0 % w/v
